These results are taken from ChEMBL document CHEMBL1150176, “Majorenolide and majorynolide: a new pair of cytotoxic and pesticidal alkene-alkyne delta-lactones from Persea major” (J Nat Prod, 1989).

The LC50 is the concentration lethal to half of the exposed cells or organisms. Higher therefore signals a less lethal substance.

In one data set the test system is MCF7. The data set can be described thus: Cytotoxicity against human MCF7 cells. It counts as functional. The conditions noted are these: read-out: ED50 (the source's name).
A further data set deals with Haemonchus contortus. The data set can be described thus: Nematicidal activity against Haemonchus contortus. The format is functional.
The next data set concerns Spodoptera eridania. As to the kind of experiment: Pesticidal activity against southern armyworm at 5000 ppm. It counts as functional, organism-based.
For another data set, the system named is Artemia. As to the kind of experiment: Toxicity against brine shrimp. The format is organism-based. The conditions noted are these: in vivo.
In data set [1] the test system is Aphis gossypii. The data set can be described thus: Pesticidal activity against melon aphid at 10 ppm. It counts as functional.
Another data set concerns Culicidae. The data set can be described thus: Pesticidal activity against mosquito larvae at 10 ppm. The format is functional.
For another data set, the system named is Calliphoridae. As to the kind of experiment: Pesticidal activity against blowfly. It counts as functional.
The next data set has as its system Tetranychus urticae. The data set can be described thus: Pesticidal activity against two spotted spider mite at 400 ppm. It counts as functional.
The next data set relates to A549. The data set can be described thus: Cytotoxicity against human A549 cells. The format is functional. Conditions: read-out: ED50 (the source's name).
The subject of a further data set is HT-29. The data set can be described thus: Cytotoxicity against human HT-29 cells. The conditions noted are these: read-out: ED50 (the source's name). The format is functional.
Data set [2] relates to Agrobacterium tumefaciens. The data set can be described thus: Antitumor activity against Agrobacterium tumefaciens-induced crown gall tumors in potato tuber by potato disk test. The format is functional.
The test system of data set [3] is Diabrotica undecimpunctata. As to the kind of experiment: Pesticidal activity against southern corn rootworm at 300 ppm. It counts as functional, organism-based. Conditions: howardi.
For data set [4], the system named is Aphis gossypii. As to the kind of experiment: Pesticidal activity against melon aphid at 400 ppm. It counts as functional.

≈ marks a conversion by molar mass, not a printed value. Calls of active or inactive are those of the source. The rule behind the calls is not given here.

Take `C=CCCCCCCCCC/C=C1\CC(CO)OC1=O` (centres undefined) [MAJORENOLIDE]: the EC50 in the data set on MCF7 was determined as 2.58 µg/mL (≈ 9.2 µM); in the data set with A549, 1.7 µg/mL (≈ 6.06 µM); in the data set on HT-29 it was 2.61 µg/mL (≈ 9.31 µM). Also, the Activity came to 0.1% in the data set with Haemonchus contortus; 80% in the data set with Aphis gossypii [1]; 20% in the data set on Culicidae; 1% with Calliphoridae; 0% in the data set with Tetranychus urticae. The result (in the data set with Spodoptera eridania; in [3]) was inactive. The molecule further returned an LC50 in the data set on Artemia of 0.36 ppm. The “inhibition (INH)” value in data set [2] came to 86%.

Turning to `C#CCCCCCCCCC/C=C1\CC(CO)OC1=O` (centres undefined) [MAJORYNOLIDE], the Activity with Aphis gossypii [4] was 0%; with Haemonchus contortus it was 0.1%; in the data set with Culicidae, 0%; in the data set with Calliphoridae it was 1%; in the data set with Tetranychus urticae, 0%. Besides, the figures for the EC50 in the data set on MCF7, in the data set with A549 and in the data set with HT-29 were 9.56 µg/mL (≈ 34.3 µM), 4.64 µg/mL (≈ 16.7 µM) and 13.8 µg/mL (≈ 49.6 µM), respectively. The outcome (in the data set on Spodoptera eridania; in data set [3]) was inactive. For the same molecule, in the data set on Artemia, the LC50 worked out at 0.89 ppm. Moreover, the “inhibition (INH)” value in data set [2] was determined as 46%.
